# Experimental data taken from patent publication US20260184687A1, “DIHYDROINDENE DERIVATIVES AS MALT1 INHIBITORS” (C4X Discovery Limited, priority 2022, published 2026).
# pIC50: −log10 of the molar value.
# What was measured:
# FL hMALT1 enzyme = biological target: T1, FL hMALT1 enzyme (Homo sapiens, UniProt Q9UDY8); assay: biochemical;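 further: Cell-free protease assay: enzyme preincubated with compound 30 min at room temperature, then cleavage of fluorogenic Ac-LVSR-AMC substrate (100 µM) tracked by fluorescence (ex 360/em 460 nm)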
# T1 sequence (Q9UDY8 1-824): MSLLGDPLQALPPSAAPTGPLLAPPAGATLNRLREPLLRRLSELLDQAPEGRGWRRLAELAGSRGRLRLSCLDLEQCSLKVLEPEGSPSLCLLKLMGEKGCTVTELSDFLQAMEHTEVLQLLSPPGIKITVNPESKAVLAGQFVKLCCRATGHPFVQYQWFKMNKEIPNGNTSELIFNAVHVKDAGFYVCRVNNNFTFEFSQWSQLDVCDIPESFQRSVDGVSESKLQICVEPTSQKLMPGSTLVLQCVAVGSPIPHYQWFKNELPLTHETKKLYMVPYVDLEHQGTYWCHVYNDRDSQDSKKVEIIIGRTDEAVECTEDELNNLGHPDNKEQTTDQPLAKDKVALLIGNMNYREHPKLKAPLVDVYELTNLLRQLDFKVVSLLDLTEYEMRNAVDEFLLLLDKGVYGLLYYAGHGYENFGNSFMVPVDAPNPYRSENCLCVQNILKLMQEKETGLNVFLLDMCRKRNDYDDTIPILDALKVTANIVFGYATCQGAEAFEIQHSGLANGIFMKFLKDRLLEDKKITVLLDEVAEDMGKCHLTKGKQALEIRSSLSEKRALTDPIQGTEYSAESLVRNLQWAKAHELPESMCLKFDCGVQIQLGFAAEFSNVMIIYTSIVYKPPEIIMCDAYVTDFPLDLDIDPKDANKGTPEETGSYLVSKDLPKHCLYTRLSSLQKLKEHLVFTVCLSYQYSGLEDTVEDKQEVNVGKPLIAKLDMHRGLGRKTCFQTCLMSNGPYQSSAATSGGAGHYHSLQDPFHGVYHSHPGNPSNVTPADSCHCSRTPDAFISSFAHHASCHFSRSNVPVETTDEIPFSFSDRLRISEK
# [1] = test system: IL-2 release from stimulated Jurkat cells; assay: Human IL-2 Release Phenotypic Assay (Assay 3); assay type: cell-based; settings: Jurkat cells (clone E6-1), 200 ng/mL PMA + 300 ng/mL ionomycin, IL-2 by ELISA
# Summary of the method: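 IC50 values were fitted by 4-parameter non-linear regression to IL-2 release from Jurkat E6-1 cells. Those cells were stimulated for 48 h with PMA (200 ng/mL) plus ionomycin (300 ng/mL) after a 30-min compound pre-incubation at half-log doses in 0.5% DMSO. Cells had been plated at 50 000/well overnight at 37° C.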
# [2] = biological target: MALT1-GS-Ub (6-His-hMALT-1 residues 339-715 fused to ubiquitin) (Homo sapiens, UniProt Q9UDY8); assay: biochemical;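 further: in vitro MALT1 protease assay: enzyme preincubated with compound 30 min at room temperature, then cleavage of fluorogenic Ac-LVSR-AMC substrate (100 µM) followed by fluorescence every 15 min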
# Chain of MALT1-GS-Ub (6-His-hMALT-1 residues 339-715 fused to ubiquitin) (Q9UDY8 with tags, fused parts or gaps limits assumed): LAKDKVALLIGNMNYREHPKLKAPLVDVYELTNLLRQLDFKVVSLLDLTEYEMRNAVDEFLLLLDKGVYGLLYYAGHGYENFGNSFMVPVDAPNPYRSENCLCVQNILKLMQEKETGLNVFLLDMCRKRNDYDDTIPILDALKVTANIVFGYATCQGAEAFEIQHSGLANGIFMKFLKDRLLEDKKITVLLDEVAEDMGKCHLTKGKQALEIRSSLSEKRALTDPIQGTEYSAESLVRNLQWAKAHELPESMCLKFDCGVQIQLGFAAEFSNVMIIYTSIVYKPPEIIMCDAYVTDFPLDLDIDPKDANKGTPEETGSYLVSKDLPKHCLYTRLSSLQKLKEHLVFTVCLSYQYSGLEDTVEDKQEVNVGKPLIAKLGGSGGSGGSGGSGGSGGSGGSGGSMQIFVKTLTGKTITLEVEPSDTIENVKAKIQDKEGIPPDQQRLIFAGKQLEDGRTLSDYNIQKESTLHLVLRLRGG
Compound,pIC50 (FL hMALT1 enzyme),"pIC50 ([1]; Homo sapiens, Jurkat, 48 h)",pIC50 [2],pIC50 ([1]; 48 hours)
"CN(C(=O)C1CCNCC1)[C@@H](c1ccc(NC2Cc3ccccc3C2)cc1)C(F)(F)F (single isomer, unassigned) [Example 70]",6.09,5.46,6.37,
"CN1CC(C(=O)N(C)[C@@H](c2ccc(NC3Cc4ccccc4C3(C)C)cc2)C(F)(F)F)C1 (single isomer, unassigned) [Example 75]",6.43,6.09,6.60,
"CN([C@@H](c1ccc(NC2Cc3ccccc3C2(C)C)cc1)C(F)(F)F)S(=O)(=O)C1CC1 (single isomer, unassigned) [Example 79]",6.14,5.37,6.21,
"CN([C@@H](c1ccc(NC2Cc3ccccc3C2(C)C)cc1)C(F)(F)F)S(=O)(=O)C1CC1 (single isomer, unassigned) [Example 80]",6.68,,6.57,5.65
"CC1(C)c2ccccc2CC1Nc1ccc([C@H](NC(=O)C2CCS(=O)(=O)CC2)C(F)(F)F)cc1 (single isomer, unassigned) [Example 81]",6.10,5.41,5.84,
"CC1(C)c2ccccc2CC1Nc1ccc([C@H](NC(=O)C2CCS(=O)(=O)CC2)C(F)(F)F)cc1 (single isomer, unassigned) [Example 82]",6.34,,6.33,5.52
"CN(C(=O)C1CNC1)C(c1ccc(NC2Cc3ccccc3C2(C)C)cn1)C(F)(F)F (single isomer, unassigned) [Example 84, N-(1-(5-((1,1-Dimethyl-2,3-dihydro-1H-inden-2-yl)amino)pyridin-2-yl)-2,2,2-trifluoroethyl)-N-methylazetidine-3-carboxamide]",6.74,,6.49,6.19
"CN(C(=O)C1CNC1)C(c1ccc(NC2Cc3ccccc3C2(C)C)cn1)C(F)(F)F (single isomer, unassigned) [Example 85, N-(1-(5-((1,1-Dimethyl-2,3-dihydro-1H-inden-2-yl)amino)pyridin-2-yl)-2,2,2-trifluoroethyl)-N-methylazetidine-3-carboxamide]",6.21,,6.21,5.71
"CN(C(=O)C1CNC1)C(c1ccc(NC2Cc3ccccc3C2(C)C)nc1)C(F)(F)F (single isomer, unassigned) [Example 87, N-(1-(6-((1,1-Dimethyl-2,3-dihydro-1H-inden-2-yl)amino)pyridin-3-yl)-2,2,2-trifluoroethyl)-N-methylazetidine-3-carboxamide]",6.33,5.95,5.91,
"CN(C(=O)C1CNC1)C(c1ccc(NC2Cc3ccccc3C2(C)C)nc1)C(F)(F)F (single isomer, unassigned) [Example 88, N-(1-(6-((1,1-Dimethyl-2,3-dihydro-1H-inden-2-yl)amino)pyridin-3-yl)-2,2,2-trifluoroethyl)-N-methylazetidine-3-carboxamide]",6.43,,6.19,5.77
"CN1CC(C(=O)N(C)C(c2ccc(NC3Cc4ccccc4C3(C)C)cn2)C(F)(F)F)C1 (single isomer, unassigned) [Example 92, N-(1-(5-((1,1-Dimethyl-2,3-dihydro-1H-inden-2-yl)amino)pyridin-2-yl)-2,2,2-trifluoroethyl)-N,1-dimethylazetidine-3-carboxamide]",6.55,6.06,6.30,
"CN1CC(C(=O)N(C)C(c2ccc(NC3Cc4ccccc4C3(C)C)nc2)C(F)(F)F)C1 (single isomer, unassigned) [Example 93, N-(1-(6-((1,1-Dimethyl-2,3-dihydro-1H-inden-2-yl)amino)pyridin-3-yl)-2,2,2-trifluoroethyl)-N,1-dimethylazetidine-3-carboxamide]",6.16,,6.00,5.52
"CN1CC(C(=O)N(C)C(c2ccc(NC3Cc4ccccc4C3(C)C)nc2)C(F)(F)F)C1 (single isomer, unassigned) [Example 95, N-(1-(6-((1,1-Dimethyl-2,3-dihydro-1H-inden-2-yl)amino)pyridin-3-yl)-2,2,2-trifluoroethyl)-N,1-dimethylazetidine-3-carboxamide]",6.19,,6.24,5.89
"CN(C(=O)c1cc[nH]c(=O)c1)C(c1ccc(NC2Cc3ccccc3C2(C)C)cn1)C(F)(F)F (single isomer, unassigned) [Example 96, N-(1-(5-((1,1-Dimethyl-2,3-dihydro-1H-inden-2-yl)amino)pyridin-2-yl)-2,2,2-trifluoroethyl)-N-methyl-2-oxo-1,2-dihydropyridine-4-carboxamide]",6.89,5.81,6.85,
"CN(C(=O)c1cc[nH]c(=O)c1)C(c1ccc(NC2Cc3ccccc3C2(C)C)cn1)C(F)(F)F (single isomer, unassigned) [Example 98, N-(1-(5-((1,1-Dimethyl-2,3-dihydro-1H-inden-2-yl)amino)pyridin-2-yl)-2,2,2-trifluoroethyl)-N-methyl-2-oxo-1,2-dihydropyridine-4-carboxamide]",6.23,,6.68,6.06
"CN(C(=O)C1CCS(=O)(=O)CC1)[C@@H](c1ccc(NC2Cc3cc(Cl)ccc3C2(C)C)cc1)C(F)(F)F (single isomer, unassigned) [Example 152]",6.38,,6.59,6.44

# The next molecules have a higher pIC50 (FL hMALT1 enzyme) than those just listed; values first:
pIC50 (FL hMALT1 enzyme),"pIC50 ([1]; Homo sapiens, Jurkat, 48 h)",pIC50 [2],pIC50 ([1]; 48 hours),Compound
7.17,,6.51,6.04,"CN(C(=O)C1CCS(=O)(=O)CC1)[C@@H](c1ccc(NC2Cc3ccccc3C2(C)C)cn1)C(F)(F)F (single isomer, unassigned) [Example 77]"
7.17,,6.72,6.92,"CN(C(=O)C1CCS(=O)(=O)CC1)[C@@H](c1ccc(NC2Cc3cc(Cl)ccc3C2(C)C)cc1)C(F)(F)F (single isomer, unassigned) [Example 153]"
7.18,7.00,6.82,,"CN(C(=O)C1CCS(=O)(=O)CC1)[C@@H](c1ccc(NC2Cc3ccc(Cl)cc3C2(C)C)cc1)C(F)(F)F (single isomer, unassigned) [Example 150]"
7.44,,6.66,6.30,"CN1CC(C(=O)N(C)[C@@H](c2ccc(NC3Cc4ccccc4C3(C)C)cc2)C(F)(F)F)C1 (single isomer, unassigned) [Example 76]"
7.74,,6.49,6.74,"CNC(=O)N1CC(C(=O)N(C)[C@@H](c2ccc(NC3Cc4ccccc4C3(C)C)cc2)C(F)(F)F)C1 (single isomer, unassigned) [Example 74]"
7.74,,6.55,6.81,"CN(C(=O)C1CCS(=O)(=O)CC1)[C@@H](c1ccc(NC2Cc3ccccc3C2(C)C)cn1)C(F)(F)F (single isomer, unassigned) [Example 78]"
8.15,,6.38,6.43,"CNC(=O)N1CC(C(=O)N(C)[C@@H](c2ccc(NC3Cc4ccccc4C3(C)C)cc2)C(F)(F)F)C1 (single isomer, unassigned) [Example 73]"
8.40,,6.92,7.01,"CN(C(=O)C1CCS(=O)(=O)CC1)[C@@H](c1ccc(NC2Cc3ccc(Cl)cc3C2(C)C)cc1)C(F)(F)F (single isomer, unassigned) [Example 151]"
